We go through 3 compounds from patent EP1061957B1, “MANGANESE (II) CHELATES WITH HIGH RELAXIVITY IN SERUM” (BRACCO S.p.A., priority 1998, dated 1999).

Like-named read-outs stand apart in the source and are kept apart here.

Data set [1] deals with mouse. To be noted: literature value, cited from earlier work.
The nature of data set [2]: Relaxivity in human serum reconstituted from Seronorm Human. In kind it is physicochemical. The conditions noted are these: human serum reconstituted from lyophilized Seronorm Human (Nycomed Pharma).
Method: The relaxivity of the compounds of the invention was measured both in saline solution and in human serum, reconstituted from Seronorm^(R) Human (Nycomed Pharma), lyophilized human serum.
Data set [3] concerns mouse. Kind of data set: Acute toxicity, DL50 in the mouse. In kind it is in vivo. To be noted: i.v.
Data set [4] can be described thus: Thermodynamic stability constant in aqueous solution, potentiometric method. In kind it is physicochemical. The conditions noted are these: 20°C, 0.1 M KCl aqueous solution.
The conditions of data set [5]: thermodynamic stability constant; from Smith and Martell, Critical Stability Constants, Vol. 6; cited from earlier work.

Turning to `[Cl][Mn][Cl]` [MnCl2], the DL50 in the data set with mouse [1] (i.v.) is recorded as 0.25 - 0.30 ^(1) mmol/kg. The “Relaxivity Seronorm Human r1” value in data set [2] is on record as 53 ^(3) mM^-1s^-1.
Consider “Manganese complex(II) of N,N'-1,2-ethanediylbis[N-(carboxymethyl)-O-(phenylmethyl) -D,L-serine] salified with 1-deoxy-1-(methyl amino) -D-glucitol (1:2) [EXAMPLE 1]”, for which, in the data set on mouse [3], the DL50 was 4.5 mmol/kg. The “Relaxivity Seronorm Human r1” value in data set [2] is given as 36 ^(3) mM^-1s^-1. In addition, the “Log KML” value in data set [4] was 13.8 ± 0.1.
Turning to Mn-EDTA, the “Log KML” value in data set [5] is 13.88 ^(2). In addition, in the data set with mouse [1] (i.p.), the DL50 is on record as 5.9 ^(2) mmol/kg. The “Relaxivity Seronorm Human r1” value in data set [2] is recorded as 10 ^(3) mM^-1s^-1.
